# In patent US7622470B2, “Treatment of T-cell lymphoma using 10-propargyl-10-deazaaminopterin” (Sloan-Kettering Institute for Cancer Research, priority 2004, dated 2009):
# “Also recorded” adds a separate entry of the source. Read-outs that look alike come from different tables or passages of the source.
# How the values were obtained:
# [1] = molecular target: T1, dihydrofolate reductase (DHFR) (Mus musculus, UniProt P00375); conditions: relative to L1210 growth inhibition; cited from earlier work
# T1 sequence (P00375 1-187): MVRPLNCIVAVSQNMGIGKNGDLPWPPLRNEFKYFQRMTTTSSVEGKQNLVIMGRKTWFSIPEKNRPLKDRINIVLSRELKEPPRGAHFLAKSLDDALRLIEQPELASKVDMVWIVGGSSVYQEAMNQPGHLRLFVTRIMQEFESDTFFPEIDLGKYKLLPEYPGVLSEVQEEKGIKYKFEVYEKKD
# murine L1210 cell line = conditions: cited from earlier work
# T cell lymphoma [2] = format: in vivo
# Method: Each of these patients was also treated with folic acid (1 mg/m^2 daily starting 1 week prior to treatment with PDX) and B12 (1 mg/m^2 monthly) supplementation.
# [3] = tested on: human tumors (mammary, lung) xenograft; conditions: cited from earlier work
# mesothelioma = conditions: cited from earlier work
# T cell lymphoma [4] = experiment: Prior treatment history of the study patients; format: in vivo, human; conditions: Patient 2: Lymphoblastic Lymphoma, Precursor T-cell; MTX May 2002 through February 2004
# [5] = Patient 2: Lymphoblastic Lymphoma, Precursor T-cell, Stage IV, PDX 30 mg/m^2 x 3 weeks every 4 weeks, 3 cycles
# [6] = Patient 3: HTLV Associated T-cell Lymphoma, PDX 30 mg/m^2 weekly x 3 every 4 weeks x 2 cycles
# [7] = Patient 4: Panniculitic T-cell Lymphoma, PDX 30 mg/m^2 weekly x 4
structure (smiles),measurement,setting,value
"C#CCC(Cc1cnc2nc(N)nc(N)c2n1)c1ccc(C(=O)N[C@@H](CCC(=O)O)C(=O)O)cc1 (stereo partly drawn) [PDX, 10-Propargyl-10-deazaaminopterin]",Inhibition of the enzyme,[1],to a lesser extent
same,Inhibition of growth,murine L1210 cell line,inhibitor of growth
same,Overall response of the patients with T-cell lymphoma treated with PDX,"T cell lymphoma [2]; 4 patients, PET imaging",all four have met criteria for complete remission
same,Toxicities,"T cell lymphoma [2]; Patient 1: Peripheral T-cell Lymphoma, Stage IV, PDX 135 mg/m^2 x 1 dose",Grade 3 stomatitis; neutropenia grade 3; sepsis
same,Response,"T cell lymphoma [2]; Patient 1: Peripheral T-cell Lymphoma, Stage IV, PDX 135 mg/m^2 x 1 dose, folic acid and B12 supplementation",Essentially complete remission by PET scan
same,Response,T cell lymphoma [2]; [5],Complete remission by PET and CT scans
same,Toxicities,T cell lymphoma [2]; [5],None
same,Response,T cell lymphoma [2]; [6],Complete remission
same,Toxicities,T cell lymphoma [2]; [6],None
same,Response,T cell lymphoma [2]; [7],Clinical complete remission by PET
same,Toxicities,T cell lymphoma [2]; [7],None
same,Efficacy against human tumors compared with reference antifolates,[3]; highly purified PDX compositions,far superior to methotrexate; also recorded: superior to edatrexate
same,Tumor growth after cessation of therapy,[3]; several weeks after the cessation of therapy,no evidence of tumor growth
same,Efficacy against mesothelioma,mesothelioma,effective against mesothelioma
CN(Cc1cnc2nc(N)nc(N)c2n1)c1ccc(C(=O)N[C@@H](CCC(=O)O)C(=O)O)cc1 [methotrexate],Response to prior treatment,T cell lymphoma [4],essentially methotrexate resistant disease
